# Literature values, collected in patent publication US4933274A, “Process for detecting genetic susceptibility to cancer” (United States of America Represented by the Secretary of …, priority 1988, dated 1990).
# Columns and labels:
# normal cells = conditions: ara-C 50 μM added to normal cells following irradiation
# x-irradiated XP-A cells = conditions: ara-C added to x-irradiated XP-A (xeroderma pigmentosum group A) cells
structure (smiles),measurement,setting,value
"Nc1ccn([C@@H]2O[C@H](CO)[C@@H](O)[C@@H]2O)c(=O)n1 [ara-C, β-cytosine arabinoside]",frequency of chromatid damage,normal cells,enhances the frequency of chromatid damage to the level observed in the irradiated cancer-prone cells
same,chromatid damage,x-irradiated XP-A cells,no effect on chromatid damage
